Assay results published in patent publication US20240189257A1, “COMPOSITIONS AND METHODS FOR MANAGING NEPHROPATHY” (SAMI-SABINSA GROUP LIMITED, priority 2021, published 2024).

Tested on: High fat diet + STZ + DOCA (diabetic nephropathy)
Assay: Renal lipids (triglyceride, total cholesterol, free fatty acid, phospholipids) by automated analyzer in high fat diet + STZ + DOCA model
Assay type: in vivo, rats
Method: After 1 week of adaptive feeding, the rats were randomly divided into normal control and experimental groups. The experimental group received high-fat diet (consisting of 70% standard laboratory chow, 15% carbohydrates, 10% lard, and 5% yolk powder) to establish an insulin resistance model, while the normal control group receive standard chow. After 4 weeks of high-fat diet feeding, the experimental group rats were induced with diabetes by a single intraperitoneal injection of STZ (35 mg/kg, dissolved in 0.01 M sodium citrate buffer, pH 4.4), while the Normal group rats were injected with the same dose of citrate buffer. At the 7th day after STZ injection, the blood glucose levels of rats were measured to confirm the successful establishment of the model. Rats with blood glucose level ≥250 mg/dl is indicative of the establishment of the disease and selected for further pharmacological studies. All rats were fed their respective diets until the end of the study. Rats were also given 1% NaCl (salt) to drink and on day 28, 0.75 μg […] (DOCA) was subcutaneously infused. Blood pressure and urinary albumin were measured to establish renal hypertension.
All the experimental rats were assigned to the specific treatment group and test drugs were administered orally once daily between 9:00 and 11:00 a.m., continuously for 12 weeks.
At the end of the treatment, all rats were be housed in individual metabolic cages for 24 h to collect urine samples and then sacrifice. Urine samples were centrifuged at 4000×g for 5 min to separate the supernatant. Blood samples are acquired by a small puncture to retro orbital plexus and centrifuged at 4000×g for 10 min at 4° C. to separate the plasma for subsequent experiments. Serum was also separated from the blood for analysis in which anti-coagulant was not added. Thereafter, the kidneys were immediately harvested and weighed. The right kidneys were washed in ice-cold saline solution and fixed in 4% neutral formaldehyde solution for histological examination, whereas the renal cortex of the left kidneys was rinsed with cold isotonic saline and subsequently stored at −70° C. until biochemical estimations.
Measurement of renal lipids viz. Triglyceride, Total cholesterol, Free Fatty Acid, Phospholipids was also done by automated analyzer.

[1] = decrease against High fat diet + STZ + DOCA group
[2] = renal lipids, high fat diet + STZ + DOCA rats, p.o. 12 weeks

SMILES: CN(C)C(=N)N=C(N)N [Metformin]
- Free fatty acids, % decrease (↓) [1]: 47.5%↓
- Phospholipids, % decrease (↓) [1]: 55.2%↓
- Total Cholesterol, % decrease (↓) [1]: 30%↓
- Triglycerides, % decrease (↓) [1]: 17.2%↓
- Free fatty acids [2]: 25.34 ± 1.88 mg/mL
- Phospholipids [2]: 4.33 ± 0.023 mg/mL
- Total Cholesterol [2]: 40.33 ± 3.50 mg/dL
- Triglycerides [2]: 122.67 ± 3.56 mg/mL
